From patent US5863913A, “Aromatic compound and pharmaceutical composition” (Kureha Chemical Industry Co., Ltd., priority 1996, dated 1999)

Columns and labels:
[1] = biological target: T1, angiotensin II receptor subtype 2 (AT2) (Bos taurus, UniProt G5E6F7); test: Binding to receptors: angiotensin II receptor subtype 2 (AT2); conditions: bovine cerebellar cortex, tracer 125I-Tyr4-angiotensin II
T1 construct: receptor : from cerebellar cortex in bovine; from tissue; host or cells: bovine cerebellar cortex
T1 sequence (G5E6F7 1-362): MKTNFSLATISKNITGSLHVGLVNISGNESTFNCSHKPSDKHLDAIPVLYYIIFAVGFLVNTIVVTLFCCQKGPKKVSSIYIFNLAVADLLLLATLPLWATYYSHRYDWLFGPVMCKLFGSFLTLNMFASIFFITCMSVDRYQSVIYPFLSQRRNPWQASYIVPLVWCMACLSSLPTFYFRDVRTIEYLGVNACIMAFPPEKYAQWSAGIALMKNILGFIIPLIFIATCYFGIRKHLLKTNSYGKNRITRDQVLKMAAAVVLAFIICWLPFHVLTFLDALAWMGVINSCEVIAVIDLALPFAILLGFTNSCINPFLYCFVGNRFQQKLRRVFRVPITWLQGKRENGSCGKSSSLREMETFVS
Method: In this Example, the affinity to the angiotensin II receptor subtype 1 or subtype 2 was evaluated by a binding assay in accordance with the method described in Biochem. Pharmacol., 33, 4057-4062 (1984).
Specifically, the measurement of the total binding in the presence of each drug was performed as follows:
A mixture (final volume=0.25 ml) of a drug in a given concentration (the drug was dissolved in DMSO, and diluted to a double volume with a buffer attached to a drug discovery system to prepare a sample for the assay; 0.025 ml), a tracer (0.025 ml), and receptors (0.2 ml) was incubated [in the case of the angiotensin II receptor subtype 1 (AT1), at room temperature for 3 hours, and in the case of the subtype 2 (AT2), at 37° C. for 1 hour]. Then, the reaction mixture was filtered with suction (GF/C filter was used in AT1, and GF/B filter was used in AT2). The filter papers after filtration with suction (the tracer bound to the receptors) were counted by a γ-well counter (ARC-500, Aloka). The non-specific bindings were measured by repeating the above method, except that a large excess amount of a displacer was added. The specific binding of the drug in the given concentration was calculated by subtracting the non-specific binding from the total binding, respectively.
In AT1 and AT2, the percentages found to inhibit the bindings of radioactive ligands (tracer) to receptors by the drugs to be tested (IC50 value of concentration to show 50% inhibition, or binding inhibition % in 100 μM) were measured, using the drugs to be tested and control drugs in the given concentration.
receptor : from cerebellar cortex in bovine
tracer : ^125 ITyr^4angiotensin II
control drug : angiotensin II (human)
(displacer) : angiotensin II (human)

[2] = system: kidney disease model rats; test: Action to lower blood pressure in kidney disease model rats (tail cuff); assay type: in vivo, Sprague-Dawley female rats; conditions: systolic, average of 8 rats, 20 mg/kg with drinking water, two days after administration; control 210
[3] = system: kidney disease model rats; test: Renal function indicatory value in kidney disease model rats; assay type: in vivo, Sprague-Dawley female rats; conditions: 20 mg/kg/day with drinking water, six weeks
[4] = system: kidney disease model rats; test: Survival time of kidney diseased animals; assay type: in vivo, Sprague-Dawley female rats; conditions: 20 mg/kg/day with drinking water, observation period eight weeks (upper limit); control 5.0

SMILES: CCCCC(=O)N(Cc1ccc(C(=O)OCCCN(C)C)cc1)c1cc(C(=O)N2CCOCC2)ccc1C(C)C [Compound No. 7, 3-N-[[[4-(3'-dimethylamino-1'-propoxycarbonyl)phenyl]methyl]valeramido]-4-i-propylbenzoic acid morpholide]
- inhibition at 100 µM [1]: 0%
- Blood Pressure [2]: 206 mmHg
- Creatinine clearance ([3]; 24 hours urine, control 0.22): 0.32 mL/min
- Creatinine ([3]; serum, control 2.0): 1.4 mg/dL
- Blood urea nitrogen ([3]; serum, control 100): 76 mg/dL
- Average survival time [4]: 6.9 weeks
